pIC50: −log10 of the molar value. Counter-ions that a name gives are not always drawn.
What was measured:
[1] = molecular target: T1, V1 Recepter (rat liver plasma membrane preparations) (Rattus norvegicus, UniProt P30560); experiment: V1 Recepter binding assay; details: [3H]-Arg-vasopressin 2×10^-10 M, 37° C., 10 minutes, pH 8.0, rat liver plasma membrane
T1 construct: rat liver plasma membrane preparations; from tissue; host or cells: rat liver plasma membranes
Experimental: Test-1: V1 Recepter binding assay
By using rat liver plasma membrane preparations prepared according to Ichiraha's method [by Akira Ichihara: J. Bio. Chem., 258, 9283 (1983)], the plasma membrane (50,000 dpm, 2×10^-10 M) of [^3 H]-Arg-vasopressin and a test compound (60 μg, 10^-8 to 10^-4 M) were incubated at 37° C. for 10 minutes in 250 μl (in total volume) of 100 mM Tris-HCl buffer (pH=8.0), containing 5 mM MgCl2, 1 mM EDTA and 0.1% BSA. After the incubation, the mixture was filtered three times by using a glass filter (GF/F) so as to separate the membrane preparation by combining with vasopressin and then washed with the buffer (5 ml). This glass filter was taken out and mixed with a liquid of scintillation cocktail. The amount of [^3 H]-vasopressin combining with the membrane was measured by liquid scintillation counter and the rate of inhibitory effect of the test compound was calculated according to the following equation: […]
C1 : the amount of [^3 H]-vasopressin combining with the membrane in the presence of the test compound of a known amount,
(§1) C0 : the amount of [^3 H]-vasopressin combining with the membrane in the absence of the test compound,
B1 : the amount of [^3 H]-vasopressin combining with the membrane in the presence of the excess amount of vasopressin (10^-6 M).
The results are expressed as IC50 value, which is the concentration of the test compound required to achieve the inhitory effect in the rate of 50% and are shown in the following Table 156.

[2] = molecular target: T2, V2 Recepter (rat kidney plasma membrane preparations) (Rattus norvegicus, UniProt Q00788); experiment: V2 Recepter binding assay; details: [3H]-Arg-vasopressin 4×10^-10 M, 4° C., pH 8.0, rat kidney plasma membrane
T2 construct: rat kidney plasma membrane preparations; from tissue; host or cells: rat kidney plasma membranes
T2 sequence (Q00788 whole entry): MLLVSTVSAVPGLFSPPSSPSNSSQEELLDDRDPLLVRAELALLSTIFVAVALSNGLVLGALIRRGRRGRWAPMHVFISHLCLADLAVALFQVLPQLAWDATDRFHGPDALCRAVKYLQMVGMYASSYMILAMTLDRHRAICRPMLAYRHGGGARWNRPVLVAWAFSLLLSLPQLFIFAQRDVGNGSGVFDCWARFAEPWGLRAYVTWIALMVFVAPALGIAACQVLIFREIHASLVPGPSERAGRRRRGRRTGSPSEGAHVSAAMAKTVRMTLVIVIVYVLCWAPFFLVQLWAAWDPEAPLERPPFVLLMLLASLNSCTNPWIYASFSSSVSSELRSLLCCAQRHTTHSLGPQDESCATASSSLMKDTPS
Experimental: Test 2: V2 Recepter binding assay
By using rat kidney plasma membrane preparations prepared according to Hechter's method [by O. Hechter: J. Bio. Chem., 2.53, 3211 (1978)], the plasma membrane (100,000 dpm, 4×10^-10 M) of [^3 H]-Arg-vasopressin and a test compound (0.6 mg, 10^-10 to 10^-5 M) were incubated at 4° C. for 3 hours in 250 μl (in total volume) of 100 mM Tris-HCl buffer (pH=8.0), containing, 5 mM MgCl2, 1 mM EDTA and 0.1% BSA. After the incubation, the mixture, the mixture was filtered by using a glass filter (GF/F) so as to separate the membrane preparation combining with vasopressin, then washed twice with the buffer (5 ml). This glass filter was taken out and mixed with liquid scintillation cocktail. The amount of [^3 H]-vasopressin combining with the membrane was measured by a liquid scintillation counter and the rate of inhibitory effect of the test compound was calculated according to the following equation: Rate of the inhibitory
C1 : the amount of [^3 H]-vasopressin combining with the membrane in the presence of the testcompound of a known amount,
as §1
B1 : the amount of [^3 H]-vasopressin combining with the mebrane in the presence of the excess amount of vasopressin (10^-6 M).
The results are expressed as IC50 value, which is the concentration of the test compound required to achieve the inhibitory effect in the rate of 50%, and are shown in the following Table 157.

[3] = molecular target: T3, Oxytocin receptor (uterin muscle membrane preparation) (Rattus norvegicus, UniProt P70536); experiment: Oxytocin receptor binding assay; details: [3H]-oxytocin 10^-9 M, 25°, one hour, pH 8.0, uterin muscle membrane, DES-treated
T3 construct: was homogenized, which was used as a membrane; from tissue; host or cells: uterine muscle membranes from diethylstilbestrol-treated animals
T3 sequence (P70536 1-388): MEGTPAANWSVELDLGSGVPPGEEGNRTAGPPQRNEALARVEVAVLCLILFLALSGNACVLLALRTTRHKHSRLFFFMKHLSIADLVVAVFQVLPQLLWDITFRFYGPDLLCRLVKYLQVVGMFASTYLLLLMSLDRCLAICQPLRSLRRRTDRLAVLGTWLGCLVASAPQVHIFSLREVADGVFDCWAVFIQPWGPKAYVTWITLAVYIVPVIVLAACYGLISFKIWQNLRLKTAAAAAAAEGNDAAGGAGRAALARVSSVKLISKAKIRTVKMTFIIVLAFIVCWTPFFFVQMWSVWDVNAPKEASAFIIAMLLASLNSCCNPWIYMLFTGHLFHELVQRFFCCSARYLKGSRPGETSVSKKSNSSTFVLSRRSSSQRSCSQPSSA
Experimental: Test-5 Oxytocin receptor binding assay
In accordance with Chan's method [by W. Y. Chan, et al.: Endocrinology, 126, 2095-2101 (1990)], the uterin muscle benn injected subcutaneously with diethylstilbe-sterol (DES) the day before and was homogenized, which was used as a membrane prepara tion. The membrane preparation (0.2 mg), [^3 H]-oxytocin (100,000 dpm, 10^-9 M), a test compound (10^-9 to 10^-5 M) were incubated at 25°. for one hour in 100 mM Tris-HCl buffer (pH=8.0, 250 μl) containing 5 mM MgCl2, 1 mM EDTA and 0.1% BSA. The mixture was filtered through a glass filter (GF/F) so as to separate the membrane preparation combining with [^3 H]-oxytocin, then, was washed twicw with the buffer (5 ml). The glass filter was put into a vial and mixed with Aquasole (a liquid scintillation cocktail). The amount of [^3 H]-oxytocin combining w ith the membrane was measured by a liquid scintillation counter. The rate of the inhibitory effect of the test compound was calculated according to the equation as follows: […]
C1 : the amount of [^3 H]-oxytocin combining with the membrane in the presence of a test compound (in known amount),
C0 : the amount of [^3 H]-oxytocin combinig with the membrane in the absence of a test compound,
B: the amount of [^3 H]-oxytocin combining with the membrane in the presence of the excess amount of oxytocin (5×10^-6 M).
The results are expressed as IC50 values, which is the concentration of the test compound required to achieve the inhibitory effect in the rate of 50%.

T1 sequence (P30560 whole entry): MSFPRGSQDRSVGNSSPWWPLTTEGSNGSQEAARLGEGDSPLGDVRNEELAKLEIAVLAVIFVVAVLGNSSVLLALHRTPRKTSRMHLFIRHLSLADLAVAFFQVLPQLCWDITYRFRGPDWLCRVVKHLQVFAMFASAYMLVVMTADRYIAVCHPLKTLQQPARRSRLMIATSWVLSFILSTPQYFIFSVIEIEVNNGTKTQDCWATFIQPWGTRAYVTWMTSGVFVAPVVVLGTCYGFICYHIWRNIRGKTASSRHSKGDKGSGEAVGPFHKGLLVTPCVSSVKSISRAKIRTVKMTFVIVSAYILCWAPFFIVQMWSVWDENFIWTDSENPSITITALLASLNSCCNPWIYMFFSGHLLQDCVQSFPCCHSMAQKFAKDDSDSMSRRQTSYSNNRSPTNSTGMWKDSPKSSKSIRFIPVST

| Structure (SMILES) | pIC50 [1] | pIC50 [2] | pIC50 [3] |
| --- | --- | --- | --- |
| COc1cc(NC(=O)c2ccccc2Cl)ccc1C(=O)N1CCCC(CC(=O)N2CCN(CCO)CC2)c2cc(Cl)ccc21 (single isomer, unassigned) [Example 85, 5-[4-(2-Hydroxyethyl)-1-piperazinyl]-carbonylmethyl-7-chloro-1-[2-methoxy-4-(2-chlorobenzoylamino)benzoyl]-2,3,4,5-tetrahydro-1H-benzoazepine] | 7.80 | 8.10 | 7.03 |
| COc1cc(NC(=O)c2ccccc2Cl)ccc1C(=O)N1CCCC(CC(=O)NCCN(C)CCO)c2cc(Cl)ccc21 (centres unmarked) [Example 160, 5-{2-[N-(2-Hydroxyethyl)-N-methylamino]ethyl}-aminocarbonylmethyl-7-chloro-1-[2-methoxy-4-(2-chlorobenzoylamino)benzoyl]-2,3,4,5-tetrahydro-1H-benzoazepine] | 8.22 | 8.48 | 7.08 |
| COc1cc(NC(=O)c2ccccc2Cl)ccc1C(=O)N1CCCC(OCCNC(N)=O)c2cc(Cl)ccc21 (centres unmarked) [Example 136, 5-(2-Ureidoethoxy)-7-chloro-1-[2-methoxy-4-(2-chlorobenzoylamino)benzoyl]-2,3,4,5-tetrahydro-1H-benzoazepine] | 7.43 | 8.37 | 6.82 |
| CCN(CCN(C)C)C(=O)COC1CCCN(C(=O)c2ccc(NC(=O)c3ccccc3Br)c(OC)c2)c2ccc(Cl)cc21 (centres unmarked) [Example 165, 5-[N-(2-Dimethylaminoethyl)-N-ethylamino]-carbonylmethoxy-7-chloro-[3-methoxy-4-(2-bromobenzoylamino)benzoyl]-2,3,4,5-tetrahydro-1H-benzoazepine] | 8.44 | 8.37 |  |
| COc1cc(C(=O)N2CCCC(OCC(=O)N3CCCN(C)CC3)c3cc(Cl)ccc32)ccc1NC(=O)c1ccccc1Br (centres unmarked) [Example 166, 5-(4-Methyl-1-homopiperazinyl)carbonylmethoxy-7-chloro-1-[3-methoxy-4-(2-bromobenzoylamino)benzoyl]-2,3,4,5-tetrahydro-1H-benzoazepine] | 8.32 | 8.00 |  |
| CNC(=NC#N)NCCOC1CCCN(C(=O)c2ccc(NC(=O)c3ccccc3Cl)cc2OC)c2ccc(Cl)cc21 (centres unmarked) [Example 149, 5-[2-(3-Methyl-2-cyanogianidino)ethoxy]-7-chloro-1-[2-methoxy-4-(2-chlorobenzoylamino)benzoyl]-2,3,4,5-tetrahydro-1H-benzoazepine] | 7.05 | 7.35 |  |
| CC(C)NCCCCOc1ccccc1C(=O)Nc1ccc(C(=O)N2CCCC(CC(=O)N(C)C)c3cc(Cl)ccc32)cc1 (centres unmarked) [Example 162, 5-Dimethylaminocarbonylmethyl-7-chloro-1-{4-[2-(4-isopropylaminobutoxy)benzoylamino]-benzoyl}-2,3,4,5-tetrahydro-1H-benzoazepine] | 8.04 | 6.89 |  |

The remaining compounds from weak to strong by pIC50 [1], led by results:

| pIC50 [1] | pIC50 [2] | pIC50 [3] | Structure (SMILES) |
| --- | --- | --- | --- |
| 6.96 | 7.82 | 6.50 | COc1cc(NC(=O)c2ccccc2Cl)ccc1C(=O)N1CCCC(OCCn2ccnc2)c2cc(Cl)ccc21 (centres unmarked) [Example 171, 5-[2-(1-Imidazolyl)ethoxy]-7-chloro-1-[2-methoxy-4-(2-chlorobenzoylamino)benzoyl]-2,3,4,5-tetrahydro-1H-benzoazepine] |
| 7.01 | 7.42 | 5.95 | COc1cc(NC(=O)c2ccccc2Cl)ccc1C(=O)N1CCCC(OCCS(=O)(=O)c2ccncc2)c2cc(Cl)ccc21 (centres unmarked) [Example 142, 5-[2-(4-Pyridyl)sulfonylethoxy]-7-chloro-1-[2-methoxy-4-(2-chlorobenzoylamino)benzoyl]-2,3,4,5-tetrahydro-1H-benzoazepine] |
| 7.05 | 6.92 | 6.32 | CCN1CCN(C(=O)CCOC2CCCN(C(=O)c3ccc(N4Cc5ccccc5C4=O)cc3)c3ccc(Cl)cc32)CC1 (centres unmarked) [Example 132, 5-(4-Ethyl-1-piperazinyl)carbonylethoxy-7-chloro-1-[4-(1-oxoisoindolin-2-yl)benzoyl]-2,3,4,5-tetrahydro-1H-benzoazepine] |
| 7.34 | 8.10 |  | COc1cc(NC(=O)c2ccccc2Cl)ccc1C(=O)N1CCCC(OCCNCC#N)c2cc(Cl)ccc21 (centres unmarked) [Example 151] |
| 8.05 | 8.60 |  | COc1cc(NC(=O)c2ccccc2Cl)ccc1C(=O)N1CCCC(CC(=O)NCCN(C)C)c2cc(Cl)ccc21 (centres unmarked) [Example 89, 5-(2-Dimethylaminoethylamino)carbonylmethyl-7-chloro-1-[2-methoxy-4-(2-chlorobenzoylamino)benzoyl]-2,3,4,5-tetrahydro-1H-benzoazepine.cndot.hydrochloride] |
| 8.15 | 7.10 |  | COc1cc(C(=O)N2CCCCc3cc(Cl)ccc32)ccc1NC(=O)c1ccccc1OCCCn1cncn1 [Example 73, 7-Chloro-1-[3-methoxy-4-{2-[3-(1,2,4-triazol-1-yl)-propoxy]benzoylamino}benzoyl]-2,3,4,5-tetrahydro-1H-benzoazepine] |
| 8.59 | 8.46 |  | CCN(CC)CCN(C)C(=O)CC1CCCN(C(=O)c2ccc(NC(=O)c3ccccc3Br)c(OC)c2)c2ccc(Cl)cc21 (centres unmarked) [Example 91, 5-[N-Methyl-N-(2-diethylaminoethyl)amino]-carbonylmethyl-7-chloro-1-[3-methoxy-4-(2-bromobenzoylamino)benzoyl]-2,3,4,5-tetrahydro-1H-benzoazepine] |
| 8.74 | 8.10 |  | COc1cc(C(=O)N2CCCC(CC(=O)N(C)CCN(C)C)c3cc(Cl)ccc32)ccc1NC(=O)c1ccccc1Br (centres unmarked) [Example 163, 5-[N-(2-Dimethylaminoethyl)-N-methylamino]-carbonylmethyl-7-chloro-1-[3-methoxy-4-(2-bromobenzoylamino)benzoyl]-2,3,4,5-tetrahydro-1H-benzoazepine] |
| 8.92 | 7.13 |  | COc1cc(C(=O)N2CCCCc3cc(Cl)ccc32)ccc1NC(=O)c1ccccc1OCCCN1CCC(NC(C)=O)CC1 (single isomer, unassigned) [Example 72, 7-Chloro-1-[3-methoxy-4-{2-[3-(4-acetylamino-1-piperidinyl)propoxy]benzoylamino}benzoyl]-2,3,4,5-tetrahydro-1H-benzoazepine] |
